Data from the NIST ThermoML archive (doi:10.1021/je700725j).
± gives the expanded uncertainty stated by the source.

Conditions: Liquid

Row | vapor or sublimation pressure (273.15 K) [kPa] | vapor or sublimation pressure (283.15 K) [kPa] | vapor or sublimation pressure (293.15 K) [kPa] | vapor or sublimation pressure (303.15 K) [kPa] | vapor or sublimation pressure (313.15 K) [kPa] | vapor or sublimation pressure (323.15 K) [kPa] | Structure (SMILES)
1 | 620 ± 4 | 837 ± 5 | 1104 ± 7 | 1432 ± 9 | 1830 ± 11 | 2298 ± 14 | CC(F)(F)F [1,1,1-trifluoroethane]
2 | 104 ± 2 | 150 ± 2 | 208 ± 2 | 284 ± 3 | 378 ± 3 | 494 ± 4 | CCCC [butane]
